Key:
[1] = system: drug-sensitive CCRF-CEM leukemia cells; experiment: Resazurin reduction assay, CCRF-CEM; type: cell-based; conditions: Homo sapiens, 72 h
Source text: (§1) The cell lines used in the present work, their origins and maintenance conditions were previously reported. In brief, drug-sensitive CCRF-CEM and multidrug resistant P-glycoprotein-over-expressing CEM/ADR5000 leukemia cells, MDA-MB-231-pcDNA3 breast cancer cells and their transfectant subline MDA-MB-231-BCRP clone 23, HCT116 (p53^+/+) colon cancer cells and its knockout clone HCT116 (p53^-/-), U87.MG glioblastoma multiform cells and their transfectant subline U87.MGΔEGFR as well as HEK293 human embryonic kidney cells transfected with or without a cDNA for ABCB5 were used. The human peripheral mononuclear cells (PMNC) were isolated from fresh blood samples of a healthy donor by using Histopaque® (Sigma-Aldrich, Taufkirchen, Germany).
(§2) Resazurin reduction assay was conducted to test the cytotoxicity of the compounds. This assay is based on the reduction of resazurin to resorufin by viable cells. […] Briefly, aliquots of 0.5×10^4 adherent cells which were allowed to attach overnight and 1×10^4 suspension cells per well were seeded in 96-well-plates with or without the addition of varying concentrations of the test substance to get a total volume of 200 μL/well. After 72 h incubation and addition of resazurin (Sigma-Aldrich) for 4 h, staining was measured by an Infinite M2000 ProTM plate reader (Tecan, Germany) using an excitation wavelength of 544 nm and an emission wavelength of 590 nm. Each assay was independently performed for at least three times, with six parallel replicates each. The protocol has been recently reported. Fifty percent inhibition concentrations (IC50) represent the drug concentrations required to inhibit 50% of cell proliferation, which were fitted with nonlinear regression using GraphPad® Prism7.

[2] = system: multidrug-resistant P-glycoprotein-overexpressing CEM/ADR5000 leukemia cells; experiment: Resazurin reduction assay, CEM/ADR5000; type: cell-based, human; conditions: Homo sapiens; CEM/ADR5000, resazurin assay, 72 h
Source text: as §1, §2

[3] = system: U87.MG glioblastoma cells; experiment: Resazurin reduction assay, U87.MG; type: cell-based; conditions: Homo sapiens, U-87 MG, 72 h
Source text: as §1
as §2, with “Each assay was independently performed for at least three times, with six parallel replicates each. The protocol has been recently reported. Fifty percent inhibition concentrations (IC50) represent the drug concentrations required to inhibit 50% of cell proliferation, which were fitted with nonlinear regression using GraphPad® Prism7.” left out

[4] = system: MDA-MB-231-pcDNA breast cancer cells; experiment: Resazurin reduction assay, MDA-MB-231-pcDNA; type: cell-based; conditions: Homo sapiens, 72 h
Source text: as §1
as §2, with “Each assay was independently performed for at least three times, with six parallel replicates each. The protocol has been recently reported. Fifty percent inhibition concentrations (IC50) represent the drug concentrations required to inhibit 50% of cell proliferation, which were fitted with nonlinear regression using GraphPad® Prism7.” left out

[5] = system: MDA-MB-231-BCRP clone 23 cells; experiment: Resazurin reduction assay, MDA-MB-231-BCRP clone 23; type: cell-based; conditions: Homo sapiens; MDA-MB-231-BCRP clone 23, resazurin assay, 72 h
Source text: as §1
as §2, with “Each assay was independently performed for at least three times, with six parallel replicates each. The protocol has been recently reported. Fifty percent inhibition concentrations (IC50) represent the drug concentrations required to inhibit 50% of cell proliferation, which were fitted with nonlinear regression using GraphPad® Prism7.” left out

[6] = system: drug-sensitive wild-type cell lines; experiment: Resazurin reduction assay, range over drug-sensitive wild-type cell lines; type: cell-based; conditions: Homo sapiens
Source text: as §1
as §2, with “Each assay was independently performed for at least three times, with six parallel replicates each. The protocol has been recently reported. Fifty percent inhibition concentrations (IC50) represent the drug concentrations required to inhibit 50% of cell proliferation, which were fitted with nonlinear regression using GraphPad® Prism7.” left out

CCRF-CEM cells [7] = experiment: Alkaline comet assay (DNA damage); type: cell-based, human; conditions: 1-, 2- or 4-fold IC50, 24 h
Protocol: The OxiSelect™ Comet Assay Kit (Cell Biolabs/Biocat, Heidelberg, Germany) was used to detect DNA damage according to the manufacturer’s instructions. CCRF-CEM cells treated with 1-, 2- and 4-fold IC50 of Aloe-emodin for 24 h. Then, the cells were mixed with agarose and applied to OxiSelect™ Comet Assay slides. These slides including the embedded cells were treated with lysis buffer and alkaline solution. Subsequently, electrophoresis was performed on the slide with a voltage of 22 V for 30 min corresponding to 1 V/cm of the electrophoresis chamber. These slides were washed with distilled water. After fixation with 70% ethanol, the slides were stained with by a fluorescent DNA binding dye.
Then, the slides were photographed by a fluorescence microscope (EVOSs FL Cell Image System, Thermo Fisher Scientific Waltham, USA) using a FITC filter with an excitation wavelength of 490 nm and emission at 520 nm. At least 50 cells per image were randomly selected and analyzed with the OpenComet software (http://www.cometbio.org). Percentages of tail DNA, tail moment and olive moment were assessed as parameters for DNA damage. The statistical significance was determined by one-way ANOVA with Tukey’s multiple comparison test.

CCRF-CEM cells [8] = experiment: Cell cycle analysis (PI, flow cytometry); type: cell-based, human; conditions: 4-fold IC50, 24 h
Protocol: The cells were collected, washed in PBS and fixed with ice-cold 96% ethanol. After washing the cells with PBS again, the cells were dissolved in PBS and stained with propidium iodide (PI, Sigma-Aldrich) at a final concentration of 50 μg/mL for 15 min in the dark. Cell cycle analyses were performed using a BD Accuri™ C6 Flow cytometer (Becton-Dickinson, Heidelberg, Germany) at 488 nm excitation wavelength, and emission was measured by a 610/20 nm band pass filter. All experiments were performed at least in triplicates. The protocol has been recently reported by us.

CCRF-CEM cells [9] = experiment: Annexin V/PI detection of apoptosis and necrosis; type: cell-based, human
Source text: A commercial annexin V/PI detection apoptosis kit was used to detect early apoptosis and necrosis according to the manufacturer’s instructions (Life Technologies, Carlsbad, CA, USA). Annexin V is a calcium-dependent phospholipid-binding protein, which binds to phosphatidylserine (PS). PS is predominantly located at the inner side of the plasma membrane under normal conditions and moves to outer surface of the membrane upon the onset of early apoptosis. This can be detected FITC-labeled annexin V. PI is a marker of late apoptosis and necrosis. We treated aliquots of 1×10^6 CCRF-CEM cells with 0.5-, 1-, 2- and 4-fold IC50 of Aloe-emodin for 48, 72 or 96 h, respectively. After washing the cells with PBS, they were stained with annexin V/FITC at room temperature for 10-15 min. Subsequently, cells were washed again and stained with PI in the dark. Then, the results were analyzed by a BD Accuri™ C6 flow cytometer at excitation wavelength 488 nm and emission wavelength 530 nm to record annexin V/FITC signals. The fluorescence of PI was detected at 488 nm excitation and was measured by a 610/20 nm band pass filter. At least three independent experiments were performed..

IC50 [1]: 9.87 µM
IC50 [2]: 12.8 µM
IC50 [3]: 21.7 µM
IC50 [4]: 22.3 µM
IC50 [5]: 26.9 µM
Structure (SMILES): O=C1c2cccc(O)c2C(=O)c2c(O)cc(CO)cc21 [Aloe-emodin]
IC50 ([6]; drug-sensitive wild-type cell lines HCT116(p53+/+), U87.MG, MDA-MB-231-pcDNA, HEK293): 16.5 to 22.3 µM
IC50 ([6]; drug-sensitive wild-type cell lines incl. CCRF-CEM (abstract)): 9.87 to 22.3 µM
DNA damage (comet tails, tail DNA %, tail and olive tail moment) (CCRF-CEM cells [7]): induced DNA damage in a dose-dependent manner
cell cycle arrest (CCRF-CEM cells [8]): clear arrest in the S-phase
apoptotic or necrotic cell death (CCRF-CEM cells [9]; 2- or 4-fold IC50, 96 h): early and late apoptosis as well as early and late necrosis
apoptotic or necrotic cell death (CCRF-CEM cells [9]; 4-fold IC50, 72 h): early and late apoptosis as well as early and late necrosis

Source: paper PMC5915154, “Aloe-emodin as drug candidate for cancer therapy” (Oncotarget, 2018)
